Where “and” joins values, the source holds several entries; their conditions need not be identical. Identical values can stand only once.
Tests used:
[1] = molecular target: T1, DCAMKL1 (Homo sapiens, UniProt O15075); details: 1 μM; Run 1, Run 2
T1 sequence (O15075 1-740): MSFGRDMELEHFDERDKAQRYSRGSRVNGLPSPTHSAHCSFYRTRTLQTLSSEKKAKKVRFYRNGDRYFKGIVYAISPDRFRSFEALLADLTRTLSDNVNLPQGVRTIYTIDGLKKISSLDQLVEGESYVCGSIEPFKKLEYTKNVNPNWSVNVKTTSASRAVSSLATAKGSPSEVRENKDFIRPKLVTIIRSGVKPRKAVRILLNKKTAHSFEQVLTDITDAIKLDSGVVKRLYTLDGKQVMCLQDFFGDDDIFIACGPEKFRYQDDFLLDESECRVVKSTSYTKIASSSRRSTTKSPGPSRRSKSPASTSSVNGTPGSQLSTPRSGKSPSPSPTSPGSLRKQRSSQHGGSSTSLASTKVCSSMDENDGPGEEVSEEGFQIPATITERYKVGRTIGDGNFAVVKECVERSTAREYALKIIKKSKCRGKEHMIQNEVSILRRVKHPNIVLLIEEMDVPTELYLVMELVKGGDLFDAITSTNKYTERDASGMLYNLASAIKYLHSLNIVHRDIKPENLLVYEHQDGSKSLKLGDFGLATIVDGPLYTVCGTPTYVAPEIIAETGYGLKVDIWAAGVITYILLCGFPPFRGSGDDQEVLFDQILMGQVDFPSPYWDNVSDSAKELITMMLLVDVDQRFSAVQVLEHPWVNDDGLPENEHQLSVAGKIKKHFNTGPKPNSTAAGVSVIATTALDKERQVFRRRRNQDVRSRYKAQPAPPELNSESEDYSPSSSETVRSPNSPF

[2] = molecular target: PKA (Homo sapiens, UniProt P17612); test: biochemical; details: read-out: % enzyme activity, 1 μM; Run 1, Run 2
[3] = molecular target: T2, GCK/MAP4K2 (Homo sapiens, UniProt Q12851); details: 1 μM; Run 1, Run 2
T2 sequence (Q12851 1-820): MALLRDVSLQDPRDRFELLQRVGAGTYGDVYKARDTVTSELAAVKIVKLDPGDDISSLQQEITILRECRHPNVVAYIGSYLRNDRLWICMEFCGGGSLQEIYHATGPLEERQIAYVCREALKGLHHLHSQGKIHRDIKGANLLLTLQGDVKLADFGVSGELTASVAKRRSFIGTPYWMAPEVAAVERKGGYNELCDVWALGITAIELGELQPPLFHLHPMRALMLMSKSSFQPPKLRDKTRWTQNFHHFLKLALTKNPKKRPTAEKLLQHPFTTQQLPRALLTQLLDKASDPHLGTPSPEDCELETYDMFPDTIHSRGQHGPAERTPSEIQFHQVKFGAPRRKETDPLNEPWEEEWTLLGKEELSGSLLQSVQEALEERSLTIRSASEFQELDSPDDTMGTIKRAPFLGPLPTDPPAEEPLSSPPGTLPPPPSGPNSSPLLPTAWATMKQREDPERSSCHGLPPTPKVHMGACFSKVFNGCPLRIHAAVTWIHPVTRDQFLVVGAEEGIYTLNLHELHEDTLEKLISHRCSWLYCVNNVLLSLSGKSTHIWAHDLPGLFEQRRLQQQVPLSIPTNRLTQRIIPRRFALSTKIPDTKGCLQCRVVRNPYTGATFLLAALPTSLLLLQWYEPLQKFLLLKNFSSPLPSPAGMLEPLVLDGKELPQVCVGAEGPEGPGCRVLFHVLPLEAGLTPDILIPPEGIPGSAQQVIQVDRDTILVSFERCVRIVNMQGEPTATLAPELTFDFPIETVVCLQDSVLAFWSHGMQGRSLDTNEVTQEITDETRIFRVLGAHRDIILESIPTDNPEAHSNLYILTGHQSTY

[4] = molecular target: T3, BMX/ETK (Homo sapiens, UniProt P51813); details: 1 μM; Run 1, Run 2
T3 sequence (P51813 1-675): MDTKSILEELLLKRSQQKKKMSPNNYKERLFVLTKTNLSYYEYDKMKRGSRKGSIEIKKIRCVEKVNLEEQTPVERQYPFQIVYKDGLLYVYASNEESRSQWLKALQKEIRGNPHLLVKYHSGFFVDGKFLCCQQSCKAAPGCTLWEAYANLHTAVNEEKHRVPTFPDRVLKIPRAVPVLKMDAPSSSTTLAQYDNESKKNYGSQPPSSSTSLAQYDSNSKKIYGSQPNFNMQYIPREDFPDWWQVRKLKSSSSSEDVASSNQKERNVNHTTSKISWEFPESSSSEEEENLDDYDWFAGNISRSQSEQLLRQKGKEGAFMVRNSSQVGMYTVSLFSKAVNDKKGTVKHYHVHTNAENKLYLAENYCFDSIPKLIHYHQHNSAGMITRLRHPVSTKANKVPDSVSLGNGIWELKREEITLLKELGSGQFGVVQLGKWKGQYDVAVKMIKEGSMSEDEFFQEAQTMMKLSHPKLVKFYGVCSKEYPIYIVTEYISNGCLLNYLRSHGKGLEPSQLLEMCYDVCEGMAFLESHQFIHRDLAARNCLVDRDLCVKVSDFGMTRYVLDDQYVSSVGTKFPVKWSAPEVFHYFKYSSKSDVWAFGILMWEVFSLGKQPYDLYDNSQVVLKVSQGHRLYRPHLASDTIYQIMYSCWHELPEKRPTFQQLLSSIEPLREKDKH

[5] = molecular target: ALK (Homo sapiens, UniProt Q9UM73); test: biochemical; details: read-out: % enzyme activity, 1 μM; Run 1, Run 2
ALK, sequence (Q9UM73 19-1620): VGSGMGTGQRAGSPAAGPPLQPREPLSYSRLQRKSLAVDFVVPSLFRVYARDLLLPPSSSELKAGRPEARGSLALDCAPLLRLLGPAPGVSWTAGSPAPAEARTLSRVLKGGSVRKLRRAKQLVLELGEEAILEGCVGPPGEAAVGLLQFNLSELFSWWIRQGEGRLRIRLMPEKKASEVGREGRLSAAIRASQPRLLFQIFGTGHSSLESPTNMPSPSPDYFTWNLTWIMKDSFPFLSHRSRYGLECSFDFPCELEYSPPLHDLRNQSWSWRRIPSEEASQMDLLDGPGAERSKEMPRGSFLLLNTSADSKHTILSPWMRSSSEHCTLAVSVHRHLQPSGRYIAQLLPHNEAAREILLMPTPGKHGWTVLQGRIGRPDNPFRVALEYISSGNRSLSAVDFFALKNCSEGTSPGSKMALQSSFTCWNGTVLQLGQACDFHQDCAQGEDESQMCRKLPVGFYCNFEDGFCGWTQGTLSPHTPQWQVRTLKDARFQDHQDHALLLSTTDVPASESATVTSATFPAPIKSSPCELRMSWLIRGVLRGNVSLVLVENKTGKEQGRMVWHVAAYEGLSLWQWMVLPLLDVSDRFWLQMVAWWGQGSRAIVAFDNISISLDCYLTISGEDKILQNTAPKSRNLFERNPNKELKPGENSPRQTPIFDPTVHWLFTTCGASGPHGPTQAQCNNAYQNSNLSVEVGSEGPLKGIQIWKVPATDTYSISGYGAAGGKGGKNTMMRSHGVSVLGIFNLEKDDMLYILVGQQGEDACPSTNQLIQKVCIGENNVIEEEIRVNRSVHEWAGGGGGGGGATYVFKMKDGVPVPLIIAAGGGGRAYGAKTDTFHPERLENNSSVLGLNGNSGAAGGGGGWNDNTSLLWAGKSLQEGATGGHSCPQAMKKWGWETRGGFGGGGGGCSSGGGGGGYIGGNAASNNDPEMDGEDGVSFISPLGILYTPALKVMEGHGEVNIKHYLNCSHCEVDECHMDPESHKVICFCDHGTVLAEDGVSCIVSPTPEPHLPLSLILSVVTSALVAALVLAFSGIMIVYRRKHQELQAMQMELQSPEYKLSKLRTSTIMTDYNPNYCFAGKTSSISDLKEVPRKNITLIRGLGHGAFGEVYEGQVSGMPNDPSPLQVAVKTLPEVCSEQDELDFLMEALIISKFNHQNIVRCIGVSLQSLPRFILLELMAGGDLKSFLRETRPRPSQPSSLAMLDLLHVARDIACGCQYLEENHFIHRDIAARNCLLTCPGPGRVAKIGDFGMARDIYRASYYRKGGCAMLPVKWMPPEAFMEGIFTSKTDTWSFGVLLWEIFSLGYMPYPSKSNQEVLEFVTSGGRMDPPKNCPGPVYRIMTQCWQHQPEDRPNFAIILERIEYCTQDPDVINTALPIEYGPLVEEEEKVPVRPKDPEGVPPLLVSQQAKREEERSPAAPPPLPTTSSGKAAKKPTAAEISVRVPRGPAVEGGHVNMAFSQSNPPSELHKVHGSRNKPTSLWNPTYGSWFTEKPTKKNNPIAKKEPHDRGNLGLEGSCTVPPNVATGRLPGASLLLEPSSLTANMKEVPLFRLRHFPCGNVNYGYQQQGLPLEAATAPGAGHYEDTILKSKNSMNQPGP

[6] = molecular target: CLK1 (Homo sapiens, UniProt P49759); test: biochemical; details: read-out: % enzyme activity, 1 μM; Run 1, Run 2
CLK1, sequence (P49759 whole entry): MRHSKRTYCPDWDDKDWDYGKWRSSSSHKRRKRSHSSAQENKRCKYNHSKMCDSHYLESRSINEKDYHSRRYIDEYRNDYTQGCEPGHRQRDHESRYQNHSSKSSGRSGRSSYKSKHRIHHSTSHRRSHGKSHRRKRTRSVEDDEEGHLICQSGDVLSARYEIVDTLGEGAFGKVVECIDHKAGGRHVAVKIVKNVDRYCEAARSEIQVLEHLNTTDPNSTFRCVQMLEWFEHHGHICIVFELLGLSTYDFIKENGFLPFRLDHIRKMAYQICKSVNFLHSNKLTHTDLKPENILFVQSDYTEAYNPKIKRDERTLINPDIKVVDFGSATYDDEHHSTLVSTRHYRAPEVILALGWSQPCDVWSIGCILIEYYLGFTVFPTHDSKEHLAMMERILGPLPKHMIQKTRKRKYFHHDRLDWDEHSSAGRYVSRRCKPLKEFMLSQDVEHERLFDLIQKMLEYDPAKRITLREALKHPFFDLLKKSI

[7] = molecular target: TYK2 (Homo sapiens, UniProt P29597); details: 1 μM; Run 1, Run 2
TYK2, sequence (P29597 whole entry, species assumed): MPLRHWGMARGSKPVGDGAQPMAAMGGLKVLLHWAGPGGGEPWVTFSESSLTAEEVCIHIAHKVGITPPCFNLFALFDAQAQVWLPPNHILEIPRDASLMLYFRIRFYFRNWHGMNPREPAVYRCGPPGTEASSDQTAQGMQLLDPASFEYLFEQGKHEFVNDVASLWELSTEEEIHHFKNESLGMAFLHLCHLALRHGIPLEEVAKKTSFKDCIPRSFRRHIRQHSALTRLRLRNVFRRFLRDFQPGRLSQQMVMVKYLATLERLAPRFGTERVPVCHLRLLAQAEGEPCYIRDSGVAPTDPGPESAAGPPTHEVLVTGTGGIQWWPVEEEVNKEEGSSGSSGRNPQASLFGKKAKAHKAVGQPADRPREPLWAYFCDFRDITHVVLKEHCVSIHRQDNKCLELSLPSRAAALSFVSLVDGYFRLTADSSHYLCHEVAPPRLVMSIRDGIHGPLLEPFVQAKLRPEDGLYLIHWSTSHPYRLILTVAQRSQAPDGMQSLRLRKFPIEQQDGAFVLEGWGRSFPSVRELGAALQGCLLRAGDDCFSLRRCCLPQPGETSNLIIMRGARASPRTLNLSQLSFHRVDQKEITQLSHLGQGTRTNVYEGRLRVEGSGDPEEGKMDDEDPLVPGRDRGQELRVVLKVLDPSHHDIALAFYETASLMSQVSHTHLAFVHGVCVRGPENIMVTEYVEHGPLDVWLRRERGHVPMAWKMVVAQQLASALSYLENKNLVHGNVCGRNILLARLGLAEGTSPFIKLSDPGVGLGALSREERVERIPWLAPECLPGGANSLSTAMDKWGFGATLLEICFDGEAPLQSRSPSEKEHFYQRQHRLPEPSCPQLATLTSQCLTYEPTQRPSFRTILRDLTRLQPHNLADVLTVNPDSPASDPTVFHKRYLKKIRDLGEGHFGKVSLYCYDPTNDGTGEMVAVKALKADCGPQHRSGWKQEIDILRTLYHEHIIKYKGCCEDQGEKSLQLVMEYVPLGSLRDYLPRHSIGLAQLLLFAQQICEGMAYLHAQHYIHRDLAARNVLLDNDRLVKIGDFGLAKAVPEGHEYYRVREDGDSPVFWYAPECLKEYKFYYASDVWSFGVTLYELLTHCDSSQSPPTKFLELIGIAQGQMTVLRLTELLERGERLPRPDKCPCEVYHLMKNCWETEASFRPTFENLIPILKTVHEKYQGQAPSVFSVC

[8] = system: ALK3/BMPR1A

## COc1cc(-c2cncc(-c3ccc(N4CCN(C)CC4)cc3)c2C)cc(F)c1C(N)=O [Compound 26a, 2-Fluoro-6-methoxy-4-(4-methyl-5-(4-(4-methylpiperazin-1-yl)phenyl)pyridin-3-yl)benzamide]
[1]
  % enzyme activity: 81.46%
[2]
  remaining activity at 1 µM: 97.9%
[3]
  % enzyme activity: 59.95%
[4]
  % enzyme activity: 102.04%
[5]
  remaining activity at 1 µM: 99.9%
[6]
  remaining activity at 1 µM: 97.8%
[7]
  % enzyme activity: 91.37%
[8]
  % enzyme activity at 1 μM: 40.2% and 38.4%

## COc1cc(-c2cncc(-c3ccc(N4C[C@@H](C)N(C)[C@@H](C)C4)cc3)c2C)cc(F)c1C(N)=O [Compound 26c, 2-Fluoro-6-methoxy-4-(4-methyl-5-(4-((3R,5S)-3,4,5-trimethylpiperazin-1-yl)phenyl)pyridin-3-yl)benzamide]
[1]
  % enzyme activity: 85.85%
[2]
  remaining activity at 1 µM: 96.9%
[3]
  % enzyme activity: 74.91%
[4]
  % enzyme activity: 100.72%
[5]
  remaining activity at 1 µM: 101%
[6]
  remaining activity at 1 µM: 88%
[7]
  % enzyme activity: 99.47%
[8]
  % enzyme activity at 1 μM: 50.5% and 50%
